According to patent US8426616B2, “Triptolide lactone ring derivatives as immunomodulators and anticancer agents” (priority 2004, dated 2013):
“Also recorded” adds a separate entry of the source.

What was measured:
[1] = system: IL-2 production in Jurkat cells; format: cell-based, human; conditions: for inhibition of IL-2 production: Jurkat cells stimulated with anti-CD3 and PMA, 24 h; for inhibition of IL-2 production, compound incubated in human serum: pre-incubation in human serum
Procedure: Test samples were diluted to 1 mM in complete tissue culture medium. […] Cells from an exponentially expanding culture of Jurkat human T cell line (#TIB-152 obtained from American Type Culture Collection, Manassas, Va.) were harvested, washed once by centrifugation, re-suspended in complete tissue culture medium, and diluted to a concentration of 2×10^6 cells/ml. A volume of 50 μl of Jurkat cells (1×10^5 cells) was added to wells containing 100 μl of the diluted compounds, 50 μl of PMA (10 ng/ml) was added to each well, and the plates were incubated at 37° C. in a 5% CO2 incubator. After 24 hours, the plates were centrifuged to pellet the cells, 150 μl of supernatant was removed from each well, and the samples were stored at −20° C. The stored supernatants were analyzed for human IL-2 concentration using the Luminex 100 (Luminex Corporation, Austin, Tex.), Luminex microspheres coupled with anti-IL-2 capture antibody, and fluorochrome-coupled anti-IL-2 detection antibody. The data were expressed as pg/ml of IL-2.
The data were plotted as the concentration of compound versus IL-2 concentration. In this case, data is provided for both compounds incubated in human serum and in mouse serum, and for PG796 without incubation.

[2] = system: human T cell lymphoma (Jurkat) cells; conditions: for cytotoxic activity (MTT assay, OD570): 24 h culture with compound; for cytotoxic activity (MTT assay), compound incubated in human serum: pre-incubation in human serum
Procedure: Test compounds were dissolved in DMSO at a concentration of 20 mM. Further dilutions were done in RPMI1640 medium (GIBCO, Rockville, Md.) supplemented with 10% Fetal Calf Serum (HyClone Laboratories, Logan, Utah).
Cytotoxicity of the compounds was determined in a standard MTT assay using Cell Proliferation Kit I (#1 465 007, Roche Diagnostics, Mannheim, Germany). Briefly, human T cell lymphoma (Jurkat) cells (4×10^5 per well) were cultured for 24 h, in 96-well tissue culture plates, in the presence of serial three-fold dilutions of test compounds or medium containing the same concentration of DMSO as in the test samples at each dilution point. The cultures were then supplemented with 10 μl/well MTT reagent for 4 h and then with 0.1 ml/well solubilizing reagent for an additional 16 h. Optical density at 570 nm (OD570) was measured on a ThermoScan microplate reader (Molecular Devices, Menlo Park, Calif.).
The data is presented as OD570 values versus concentration of the compounds. In this case, data is provided for both compounds incubated in human serum and in mouse serum, and for PG796 without incubation.

Row | Compound | inhibition of IL-2 production [1] | cytotoxic activity (MTT assay, OD570) [2] | inhibition of IL-2 production, compound incubated in human serum ([1]; Jurkat cells) | inhibition of IL-2 production, compound incubated in mouse serum ([1]; Jurkat cells, pre-incubation in mouse serum) | inhibition of IL-2 production, compound unincubated ([1]; Jurkat cells, without serum incubation, compared with serum-incubated compound) | cytotoxic activity (MTT assay), compound incubated in human serum [2] | cytotoxic activity (MTT assay), compound incubated in mouse serum ([2]; pre-incubation in mouse serum) | cytotoxic activity (MTT assay), compound unincubated ([2]; without serum incubation, compared with serum-incubated compound)
1 | CC1OC(=O)C2=C1[C@@H]1C[C@@H]3O[C@@]34[C@H](O)[C@@]3(C(C)C)O[C@H]3[C@@H]3O[C@@]34[C@@]1(C)CC2 (stereo partly drawn) [PG795, 19-methyl triptolide] | significant activity; also recorded: less active than triptolide; also recorded: inhibited IL-2 production | cytotoxic to Jurkat cells; also recorded: significant activity; also recorded: less active than triptolide |  |  |  |  |  | 
2 | CC(C)[C@]12O[C@H]1[C@@H]1O[C@]13[C@]1(O[C@H]1C[C@H]1c4c(C(=O)c5ccccc5)oc(OC(=O)c5ccccc5)c4CC[C@@]13C)[C@@H]2O [PG796, 18-deoxo-19-dehydro-18-benzoyloxy-19-benzoyl triptolide] | higher level of activity in both assays than the known prodrug, triptolide 14-succinate; also recorded: inhibited IL-2 production | cytotoxic to Jurkat cells; also recorded: higher level of activity in both assays than the known prodrug, triptolide 14-succinate | high, and essentially equivalent, activity | high, and essentially equivalent, activity | nearly equivalent activity | high, and essentially equivalent, activity | high, and essentially equivalent, activity | nearly equivalent activity
3 | CC(C)[C@]12O[C@H]1[C@@H]1O[C@]13[C@]1(O[C@H]1C[C@H]1C4=C(CC[C@@]13C)C(=O)OC4)[C@@H]2OC(=O)CCC(=O)O [triptolide 14-succinate, reference compound] |  |  | much less active in these assays than triptolide 14-succinate incubated in mouse serum |  |  | much less active in these assays than triptolide 14-succinate incubated in mouse serum |  | 
